Experiments:
[1] = test system: NF-κB Luciferase Reporter Hela cells; assay: TNF-α inducing NF-κB reporter; assay type: cell-based
Protocol: Biological Assay 2: TNF-α inducing NF-κB reporter
• 1) tested compounds were added into DMSO to give parent liquor (10 mM); • 2) reference compound Birinapant (32 μL, 10 mM) was added into DMSO (128 μL) to give a solution (2 mM); • 3) 0.5 μL reference compound Birinapant (2 mM) and tested compounds (10 mM) were taken by Echo and added into Greiner 96 well black cell culture plate respectively. The initial concentration of the reference compound and tested compound was 10 μM and 50 μM, respectively. Then, the reference compound and tested compounds were diluted at 9 points in series by 5-fold; and every plate was repeated for 3 times. • 4) the reference compound WXFL2012A001 (Birinapant) (final concentration: 10 μM) as HPE and DMSO (final concentration: 0.5%) as ZPE.
• 5) purpose of the three repeated plates: the first plate was used for testing compounds' activity;
the second plate was used for testing cytotoxicity of the compounds; the third plate was used for solution replacement of the first and second plates: mixing inducer TNF-α and medium containing 0.1% FBS, and then being added to the third plate and the resultant mixture was transferred to the first plate where supernatants had been removed.
• 1) removing medium in NF-iBLuciferase Reporter Hela cell culture flask and washing cell once with PBS (10 mL) • 2) adding 0.25% pancreatin (3 mL) to T150 cell culture flask, and placinginto cell incubator (37° C., 5%CO2) and dissociating cell for 3 min, and then medium (10 mL) was added to end dissociation and blowing cells with electric pipette until cells were dispersed into single cell. • 3) Calculating cell density with cell counter Countstar • 4) Adjusting NF-κB Luciferase Reporter Hela density with medium to 2.0×10^5 cells/mL • 5) Adding cells to two Greiner 96 well black cell culture plates containing compounds, (100 μL per well (2.0×10^4 cells/well)), one plate was used for testing compounds' activity, another was used for testing cytotoxicity of the compounds. • 6) Placing cell culture plates into cell incubator (37° C., 5%CO2) and incubatingfor 24 h Second Day TNF-α Inducing • 1) TNF-α (100 μg/mL) was diluted into 20 ng/mL with 0.1% FBS medium and transferredto the third plate with 100 μL per well • 2) Removing medium of the first 96 well black cell culture plate (compound activity testing plate) after 24 h, replacing with fresh medium containing the compound and 20 ng/mL TNF-α in the third plate • 3) Placing cell culture plate into cell incubator (37° C., 5% CO2) and incubatingfor 6 h • 4) after 6 h, compound's activity in the first plate was tested according to Bright-Glo (Promega) manual method, luciferase signal in each well was tested by Envision plate reader • 5) compound's cytotoxicity in the second plate was tested according to ATPlite 1Step (Perkin Elmer) manual method, luciferase signal in each well was tested by Envision plate reader • 6) analyzing with software to obtain EC50 of compound.

[2] = target: cIAP2-BIR3 Protein (Homo sapiens (Human), UniProt Q13489); assay: Fluorescence polarization affinity of compounds to cIAP2-BIR3; assay type: binding; conditions: cIAP2-BIR3 60 nM; 5 nM ARPFAQ-K(5-FAM)-NH2 probe; FP; pH 7.5; read-out: affinity to target protein in vitro, cIAP2-BIR3 Protein (IC50)
Chain of cIAP2-BIR3 Protein (Q13489 238-349): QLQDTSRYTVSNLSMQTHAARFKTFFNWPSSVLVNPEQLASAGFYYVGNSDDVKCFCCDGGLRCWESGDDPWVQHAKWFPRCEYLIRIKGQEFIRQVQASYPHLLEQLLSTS
Protocol: (§1) Biological Assay 1: affinity of compounds to cIAP1-BIR3, cIAP2-BIR3, XIAP-BIR3 • 1) Affinity of compounds listed in table to cIAP1-BIR3, Ciap2-BIR3, XIAP-BIR3 was tested referring to Nikolovska-Colesks, Z. et.Al. (Analytical Biochemistry,2004,232:261-273) to obtain IC50 value. Generally speaking, in 10-dose IC50 mode, IAP antagonists with different concentrations were diluted in series by 3-fold and fluorescence labelled ARPFAQ-K (5-FAM)-NH2 peptide was used as probe to test compounds binding to protein BIR3 domain. • 2) Test condition: cIAP1-BIR3: 20 nM; cIAP2-BIR3: 60 nM; XIAP-BIR3: 30 nM; 5 nM probe in 100 mM tripotassium phosphate, pH 7.5, 0.1 mg/mL BSA, 0.005% Triton X100 and 0.5% DMSO. • 3) Test procedure: compounds were added into protein with different concentrations by using ECHO (LabCyte), and then the mixture was preincubated for 15 min. The probe was added and the final concentration was 5 nM. After incubating for 60 min, FP was tested and mP was calculated. Experiment results were list in table 1.

[3] = target: cIAP1-BIR3 Protein (Homo sapiens (Human), UniProt Q13490); assay: Fluorescence polarization affinity of compounds to cIAP1-BIR3; assay type: binding; conditions: cIAP1-BIR3 20 nM; 5 nM ARPFAQ-K(5-FAM)-NH2 probe; FP; pH 7.5; read-out: affinity to target protein in vitro, cIAP1-BIR3 Protein (IC50)
Chain of cIAP1-BIR3 Protein (Q13490 253-363): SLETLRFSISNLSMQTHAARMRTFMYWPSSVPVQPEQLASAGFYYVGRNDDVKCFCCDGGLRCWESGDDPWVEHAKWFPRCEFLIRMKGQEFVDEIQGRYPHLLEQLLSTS
Protocol: as §1

[4] = target: XIAP-BIR3 Protein (Homo sapiens (Human), UniProt P98170); assay: Fluorescence polarization affinity of compounds to XIAP-BIR3; assay type: binding; conditions: XIAP-BIR3 30 nM; 5 nM ARPFAQ-K(5-FAM)-NH2 probe; FP; pH 7.5; read-out: affinity to target protein in vitro, XIAP-BIR3 Protein (IC50)
Chain of XIAP-BIR3 Protein (P98170 241-356): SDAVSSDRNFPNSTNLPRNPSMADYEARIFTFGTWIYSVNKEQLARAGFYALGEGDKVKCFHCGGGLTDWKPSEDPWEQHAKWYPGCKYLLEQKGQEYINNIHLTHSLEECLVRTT
Protocol: as §1

[5] = Homo sapiens, 6 h, Table 3, 20 ng/mL TNF-α, Bright-Glo luciferase, values given as ranges

EC50 [1, 5] | Compound | further results
> 100 nM | CC[C@H](NC(=O)[C@H](C)NC)C(=O)N1C[C@@H](F)C[C@H]1Cc1c(-c2nc3cc(F)ccc3n2C[C@@H]2C[C@H](F)CN2C(=O)[C@H](CC)NC(=O)[C@H](C)NC)[nH]c2cc(F)ccc12 [Embodiment 13] | IC50 [2]: 10 to 100 nM; IC50 [3]: 10 to 100 nM; IC50 [4]: 10 to 100 nM
10 to 100 nM | CC[C@H](NC(=O)[C@H](C)NC)C(=O)N1CCC[C@H]1Cc1c(-c2nc3cc(F)ccc3n2C[C@@H]2C[C@H](F)CN2C(=O)[C@@H](NC(=O)[C@H](C)NC)C(C)C)[nH]c2cc(F)ccc12 [Embodiment 37] | 
 | CC[C@H](NC(=O)[C@H](C)NC)C(=O)N1C[C@@H](F)C[C@H]1Cn1c(-c2[nH]c3cc(F)ccc3c2C[C@@H]2C[C@H](F)CN2C(=O)[C@@H](NC(=O)[C@H](C)NC)C(C)(C)C)nc2cc(F)ccc21 [Embodiment 26] | EC50 ([1]; Homo sapiens, Table 3, 20 ng/mL TNF-α, 6 h, Bright-Glo luciferase, values given as ranges): < 10 nM; IC50 [2]: < 10 nM; IC50 [3]: < 10 nM; IC50 [4]: < 10 nM
< 10 nM | CCC[C@H](NC(=O)[C@H](C)NC)C(=O)N1C[C@@H](F)C[C@H]1Cc1c(-c2nc3cc(F)ccc3n2C[C@@H]2C[C@H](F)CN2C(=O)[C@@H](NC(=O)[C@H](C)NC)C(C)(C)C)[nH]c2cc(F)ccc12 [Embodiment 33] | 
10 to 100 nM | CC[C@H](NC(=O)[C@H](C)NC)C(=O)N1CC(F)(F)C[C@H]1Cn1c(-c2[nH]c3cc(F)ccc3c2C[C@@H]2CC(F)(F)CN2C(=O)[C@@H](NC(=O)[C@H](C)NC)C(C)C)nc2cc(F)ccc21 [Embodiment 47] | 
10 to 100 nM | CC[C@H](NC(=O)[C@H](C)NC)C(=O)N1C[C@@H](F)C[C@H]1Cc1c(-c2nc3cc(F)ccc3n2C[C@@H]2[C@@H](C)[C@@H](C)CN2C(=O)[C@H](CC)NC(=O)[C@H](C)NC)[nH]c2cc(F)ccc12 [Embodiment 48] | 
10 to 100 nM | CCC[C@H](NC(=O)[C@H](C)NC)C(=O)N1CCC[C@H]1Cn1c(-c2[nH]c3cc(F)ccc3c2C[C@@H]2CCCN2C(=O)[C@@H](NC(=O)[C@H](C)NC)C(C)(C)C)nc2cc(F)ccc21 [Embodiment 11] | 
< 10 nM | CCC[C@H](NC(=O)[C@H](C)NC)C(=O)N1C[C@@H](F)C[C@H]1Cc1c(-c2nc3cc(F)ccc3n2C[C@@H]2C[C@H](F)CN2C(=O)[C@@H](NC(=O)[C@H](C)NC)C2CCCCC2)[nH]c2cc(F)ccc12 [Embodiment 34] | 
10 to 100 nM | CCC[C@H](NC(=O)[C@H](C)NC)C(=O)N1CCC[C@H]1Cn1c(-c2[nH]c3cc(F)ccc3c2C[C@@H]2CCCN2C(=O)[C@@H](NC(=O)[C@H](C)NC)C(C)C)nc2cc(F)ccc21 [Embodiment 10] | 
 | CC[C@H](NC(=O)[C@H](C)NC)C(=O)N1C[C@@H](O)C[C@H]1Cc1c(-c2[nH]c3cc(F)ccc3c2C[C@@H]2C[C@H](O)CN2C(=O)[C@H](CC)NC(=O)[C@H](C)NC)[nH]c2cc(F)ccc12 [Birinapant, reference compound] | EC50 ([1]; Homo sapiens, 6 h, Table 4, 20 ng/mL TNF-α, Bright-Glo luciferase, exact values with control Birinapant): 7.05 nM
< 10 nM | CC[C@H](NC(=O)[C@H](C)NC)C(=O)N1CCC[C@H]1Cc1c(-c2nc3cc(F)ccc3n2C[C@@H]2CCCN2C(=O)[C@@H](NC(=O)[C@H](C)NC)C(C)(C)C)[nH]c2cc(F)ccc12 [Embodiment 3] | 
10 to 100 nM | CCC[C@H](NC(=O)[C@H](C)NC)C(=O)N1CCC[C@H]1Cn1c(-c2[nH]c3cc(F)ccc3c2C[C@@H]2CCCN2C(=O)[C@@H](NC(=O)[C@H](C)NC)C2CCCCC2)nc2cc(F)ccc21 [Embodiment 12] | 
10 to 100 nM | CCC[C@H](NC(=O)[C@H](C)NC)C(=O)N1CCC[C@H]1Cc1c(-c2nc3cc(F)ccc3n2C[C@@H]2CCCN2C(=O)[C@@H](NC(=O)[C@H](C)NC)C2CCCCC2)[nH]c2cc(F)ccc12 [Embodiment 9] | 
10 to 100 nM | CC[C@H](NC(=O)[C@H](C)NC)C(=O)N1CCC[C@H]1Cn1c(-c2[nH]c3cc(F)ccc3c2C[C@@H]2C[C@H](F)CN2C(=O)[C@@H](NC(=O)[C@H](C)NC)C(C)C)nc2cc(F)ccc21 [Embodiment 41] | 
10 to 100 nM | CC[C@H](NC(=O)[C@H](C)NC)C(=O)N1C[C@@H](F)C[C@H]1Cc1c(-c2nc3cc(F)ccc3n2C[C@@H]2C[C@H](F)CN2C(=O)[C@@H](NC(=O)[C@H](C)NC)C(C)C)[nH]c2ccccc12 [Embodiment 50] | 
< 10 nM | CCC[C@H](NC(=O)[C@H](C)NC)C(=O)N1CCC[C@H]1Cc1c(-c2nc3cc(F)ccc3n2C[C@@H]2CCCN2C(=O)[C@@H](NC(=O)[C@H](C)NC)C(C)(C)C)[nH]c2cc(F)ccc12 [Embodiment 8] | 
10 to 100 nM | CC[C@H](NC(=O)[C@H](C)NC)C(=O)N1CCC[C@H]1Cc1c(-c2nc3cc(F)ccc3n2C[C@@H]2CCCN2C(=O)[C@@H](NC(=O)[C@H](C)NC)C2CCCCC2)[nH]c2cc(F)ccc12 [Embodiment 4] | 
10 to 100 nM | CCC[C@H](NC(=O)[C@H](C)NC)C(=O)N1C[C@@H](F)C[C@H]1Cc1c(-c2nc3cc(F)ccc3n2C[C@@H]2C[C@H](F)CN2C(=O)[C@H](CCC)NC(=O)[C@H](C)NC)[nH]c2cc(F)ccc12 [Embodiment 15] | 
10 to 100 nM | CC[C@H](NC(=O)[C@H](C)NC)C(=O)N1CCC[C@H]1Cn1c(-c2[nH]c3cc(F)ccc3c2C[C@@H]2CCCN2C(=O)[C@@H](NC(=O)[C@H](C)NC)C2CCCCC2)nc2cc(F)ccc21 [Embodiment 6] | 
< 10 nM | CCC[C@H](NC(=O)[C@H](C)NC)C(=O)N1C[C@@H](F)C[C@H]1Cn1c(-c2[nH]c3cc(F)ccc3c2C[C@@H]2C[C@H](F)CN2C(=O)[C@@H](NC(=O)[C@H](C)NC)C(C)(C)C)nc2cc(F)ccc21 [Embodiment 35] | 
10 to 100 nM | CN[C@@H](C)C(=O)N[C@H](C(=O)N1CC(F)(F)C[C@H]1Cc1c(-c2nc3cc(F)ccc3n2C[C@@H]2CC(F)(F)CN2C(=O)[C@@H](NC(=O)[C@H](C)NC)C(C)C)[nH]c2cc(F)ccc12)C(C)C [Embodiment 45] | 
< 10 nM | CC[C@H](NC(=O)[C@H](C)NC)C(=O)N1C[C@@H](F)C[C@H]1Cc1c(-c2nc3cc(F)ccc3n2C[C@@H]2C[C@H](F)CN2C(=O)[C@@H](NC(=O)[C@H](C)NC)C(C)C)[nH]c2cc(Cl)ccc12 [Embodiment 51] | 
< 10 nM | CN[C@@H](C)C(=O)N[C@H](C(=O)N1C[C@@H](F)C[C@H]1Cc1c(-c2nc3cc(F)ccc3n2C[C@@H]2[C@@H](C)[C@@H](C)CN2C(=O)[C@@H](NC(=O)[C@H](C)NC)C(C)C)[nH]c2cc(F)ccc12)C(C)C [Embodiment 49] | 
10 to 100 nM | CCC[C@H](NC(=O)[C@H](C)NC)C(=O)N1CCC[C@H]1Cc1c(-c2nc3cc(F)ccc3n2C[C@@H]2CCCN2C(=O)[C@@H](NC(=O)[C@H](C)NC)C(C)C)[nH]c2cc(F)ccc12 [Embodiment 7] | 
10 to 100 nM | CC[C@H](NC(=O)[C@H](C)NC)C(=O)N1CCC[C@H]1Cn1c(-c2[nH]c3cc(F)ccc3c2C[C@@H]2CCCN2C(=O)[C@@H](NC(=O)[C@H](C)NC)C(C)(C)C)nc2cc(F)ccc21 [Embodiment 5] | 
